Results reported in patent US20210196719A1, “USE OF CDK4/6 INHIBITOR IN COMBINATION WITH EGFR INHIBITOR IN THE PREPARATION OF MEDICAMENT FOR TREATING TUMOR DISEASES” (JIANGSU HENGRUI MEDICINE CO., LTD., priority 2018, published 2021).
Where two headings read alike, the source gives them in different places.

Tests used:
[1] = Body weight of nude mice in the NCI-H1975 transplanted tumor study; details: x ± SE
[2] = system: human lung cancer NCI-H1975 transplanted tumor; assay: Human lung cancer NCI-H1975 transplanted tumor model of nude mice; details: for Tumor volume (mm^3) D 1: D 1 (at grouping); for Tumor volume (mm^3) D 1 / Tumor weight / RTV (relative tumor volume) / Tumor volume (mm^3) D 22: x ± SE; for Tumor weight: D 22, after sacrifice; for T/C(%) (relative tumor growth rate): TRTV/CRTV; for RTV (relative tumor volume): Vt/V0; for Tumor volume (mm^3) D 22: intragastric q.d. 21 days, gefitinib 30, drug A 100(50), drug B 5 mg/kg
[3] = system: human non-small cell lung adenocarcinoma cells (NCI-H1975); assay: Proliferation inhibition of NCI-H1975 cells (SRB method, 7 days); type: cell-based; details: 168 h, read-out: Inhibition rate (%)
[4] = mouse, in vivo

SMILES | Average body weight (g) D 1 ([1]; D 1, n=3) | Average body weight (g) D 22 ([1]; D 22, intragastric q.d. 21 days, gefitinib 30, drug A 100(50), drug B 5 mg/kg) | Tumor volume (mm^3) D 1 [2] | Tumor weight [2] | T/C(%) (relative tumor growth rate) ([2]; D 22) | RTV (relative tumor volume) ([2]; D 22) | Tumor volume (mm^3) D 22 ([2]; D 22) | inhibition at 0.005 µM ([3]; Drug B alone 5 nM) | inhibition at 0.01 µM ([3]; Drug B alone 10 nM) | IR (%) (tumor inhibition percentage) ([2]; D 22, by tumor weight vs control) | Average body weight (g) D 1 [4]
COc1cc2ncnc(Nc3ccc(F)c(Cl)c3)c2cc1OCCCN1CCOCC1 [Gefitinib, gefitinib, reference compound] | 21.8 ± 0.6 g | 24.5 ± 0.8 g | 130 ± 41 mm^3 | 0.4097 ± 0.1605 g | 66.81% | 3.18±0.65 | 477±162 mm^3 |  |  |  | 
C=CC(=O)Nc1cc(Nc2nccc(-c3cn(C4CC4)c4ccccc34)n2)c(OC)cc1N(C)CCN(C)C [Drug B] |  |  | 130 ± 44 mm^3 | 0.1091 ± 0.0621 g | 26.14% | 1.25±0.53 | 125±58 mm^3 | 50.3% | 53.8% | 81.69% | 22.8 ± 0.7 g
